Values joined by “and” are separate entries in the source; they are usually repeats but may differ in a detail not shown here. Identical values can stand only once. *1 amine or outer side, *2 acyl side, *3 side chain or, on linkers, in order; H or OH if unused. Where no end group is shown, it is not given here. [ ]: non-standard residue; d: D form. Benzoyl(5-NH,2-NO2) = O=C(c1cc(N[*:1])ccc1[N+](=O)[O-])[*:2]; 2Abz = Nc1ccccc1C(=O)O
What was measured:
[1] = test system: urine samples taken from healthy persons; assay: Hydrolysis of the chromogenic substrate in urine from healthy subjects (absorbance at 405 nm); format: biochemical, human; conditions: for absorbance: healthy subject, 405 nm, 60 minutes, 37° C., pH 8.0, triplicate
[2] = test system: at least one enzyme of the studied material; assay: Dependence of substrate hydrolysis on reaction pH; format: biochemical; conditions: FIG. 4
Method: Furthermore, measurements concerning the dependence of the proteolytic activity of the representative compound according to the invention on the reaction pH were performed.

[3] = test system: proteolytic enzymes in urine from a subject suffering from intestinal cancer; assay: Hydrolysis of the chromogenic substrate in urine from subjects with intestinal cancer (absorbance at 405 nm); format: biochemical, human; conditions: for absorbance: 405 nm, 60 minutes, 37° C., pH 8.0, triplicate
Method: The activity of the novel compounds according to the invention was studied in a group of 20 subjects diagnosed with intestinal cancer using the representative compound according to the invention. […] The remaining compounds according to the invention are characterized by the analogous mechanism of action. For this purpose, the representative compound according to the invention, ABZ^1-Asn^2-Phe^3-Ser^4-Pro^5-ANB^6—NH2, was dissolved in dimethyl sulfoxide (at a concentration of 0.5 mg/mL) and then 50 μL of the solution was mixed with 120 μL of a buffer (200 mM Tris-HCl, pH 8.0) and 80 μL of urine from a subject suffering from intestinal cancer. The measurement was performed on a 96-well plate designed for measuring absorbance and each sample was analysed in triplicate at the temperature of 37° C. The duration of the measurement was 60 minutes. During the measurement, the wavelength characteristic for the chromophore (ANB-NH2) being released was monitored at the wavelength 405 nm (range 380-430 nm).

[4] = test system: urine taken from a person diagnosed with intestinal cancer; assay: RP HPLC analysis of substrate cleavage in urine from a person with intestinal cancer; format: biochemical, human; conditions: randomly selected urine sample from a person diagnosed with intestinal cancer

“ABZ-Asn-Phe-Ser-Pro-ANB-NH2 ([2Abz]NFSP-{Benzoyl(5-NH,2-NO2)-NH2}) [chromogenic/fluorogenic peptide substrate; ABZ is 2-aminobenzoic acid, ANB-NH2 is amide of 5-amino-2-nitrobenzoic acid]” showed an absorbance ([1]; urine sample 1Z) of 0.00000, an absorbance ([1]; urine sample 2Z) of 0.00000 and an absorbance ([1]; urine sample 3Z) of 0.00000. For the same substance, the absorbance ([1]; urine sample 4Z) was 0.00000, the absorbance ([1]; urine sample 5Z) was 0.00000 and the absorbance ([1]; urine sample 6Z) was 0.00000. For the same substance, the absorbance ([1]; urine sample 7Z) was 0.00000, the absorbance ([1]; urine sample 8Z) was 0.00000 and the absorbance ([1]; urine sample 9Z) was 0.00000. It also gave an absorbance ([1]; urine sample 10Z) of 0.00000, an absorbance ([1]; urine sample 11Z) of 0.00000 and an absorbance ([1]; urine sample 12Z) of 0.00000. For the same substance, the absorbance ([1]; urine sample 13Z) was 0.00000, the absorbance ([1]; urine sample 14Z) was 0.00000 and the absorbance ([1]; urine sample 15Z) was 0.00000. For the same substance, the absorbance ([1]; urine sample 16Z) was 0.00000, the absorbance ([1]; urine sample 17Z) was 0.00000 and the absorbance ([1]; urine sample 18Z) was 0.00000. The absorbance ([1]; urine sample 19Z) was 0.00000, the absorbance ([1]; urine sample 20Z) was 0.00000 and the “increase in absorbance / hydrolysis of the tested compound” value ([1]; urine samples from healthy persons 1Z to 20Z) was “does not lead to an increase in absorbance”. For the same substance, the “dependence of the proteolytic activity on the reaction pH” value [2] was “maximum activity at alkaline pH”, the “cleavage of the substrate” value ([3]; all samples 1-20 from persons suffering from intestinal cancer) was “underwent cleavage” and the absorbance ([3]; urine sample 3, intestinal cancer) was 0.035 and 0.034 and 0.036. For the same substance, the absorbance ([3]; urine sample 4, intestinal cancer) was 0.0314 and 0.0313 and 0.0385, the absorbance ([3]; urine sample 7, intestinal cancer) was 0.041 and 0.039 and 0.04 and the absorbance ([3]; urine sample 8, intestinal cancer) was 0.0257 and 0.0219 and 0.0258. The absorbance ([3]; urine sample 9, intestinal cancer) was 0.056 and 0.064 and 0.06, the absorbance ([3]; urine sample 10, intestinal cancer) was 0.025 and 0.024 and 0.026 and the absorbance ([3]; urine sample 11, intestinal cancer) was 0.015 and 0.016 and 0.027. For the same substance, the absorbance ([3]; urine sample 12, intestinal cancer) was 0.0916 and 0.0979 and 0.101, the absorbance ([3]; urine sample 13, intestinal cancer) was 0.046 and 0.0337 and 0.0461 and the absorbance ([3]; urine sample 14, intestinal cancer) was 0.025 and 0.018 and 0.0182. The absorbance ([3]; urine sample 15, intestinal cancer) was 0.031 and 0.028 and 0.02, the absorbance ([3]; urine sample 16, intestinal cancer) was 0.0183 and 0.0293 and 0.0246 and the absorbance ([3]; urine sample 17, intestinal cancer) was 0.073 and 0.07 and 0.046. The absorbance ([3]; urine sample 18, intestinal cancer) was 0.016 and 0.0186 and 0.0202, the absorbance ([3]; urine sample 19, intestinal cancer) was 0.036 and 0.04 and 0.038 and the “cleavage products by RP HPLC” value [4] was “cleaves into the peptide fragment ABZ-Asn-Phe-Ser-Pro-OH and the chromophore group of the compound (ANB-NH2)”.

From patent US20250206777A1, “COMPOUND - DIAGNOSTIC MARKER FOR INTESTINAL CANCER, METHOD FOR DETECTING ENZYMATIC ACTIVITY, METHOD FOR DIAGNOSIS OF INTESTINAL CANCER, KIT COMPRISING THE COMPOUND, USES OF THE COMPOUND AND METHOD FOR THE TREATMENT OF INTESTINAL CANCER” (URTESTE S.A., priority 2022, published 2025)
